Laboratory results reported in ChEMBL document CHEMBL5126603, “Discovery of Clinical Candidate CHF-6366: A Novel Super-soft Dual Pharmacology Muscarinic Antagonist and β2 Agonist (MABA) for the Inhaled Treatment of Respiratory Diseases” (J Med Chem, 2022).
pIC50: −log10 of the molar value.

What was measured:
[1] = Metabolic stability in rat lung S9 fraction assessed as half life at 1 uM measured after 0 to 60 mins in presence of NADPH by LC-MS/MS analysis; type: ADME, subcellular; conditions: time 0-60 min
[2] = Metabolic stability in human lung S9 fraction assessed as half life at 1 uM measured after 0 to 60 mins in presence of NADPH by LC-MS/MS analysis; type: ADME, subcellular; conditions: time 0-60 min
[3] = Metabolic stability in Dunkin-Hartley guinea pig lung S9 fraction assessed as half life at 1 uM measured after 0 to 60 mins in presence of NADPH by LC-MS/MS analysis; type: ADME, subcellular, Cavia porcellus; conditions: time 0-60 min
[4] = Metabolic stability in human plasma assessed as half life at 5 uM measured upto 120 mins by LC-MS/MS analysis; type: ADME, cell-free
[5] = Metabolic stability in rat plasma assessed as half life at 5 uM measured upto 120 mins by LC-MS/MS analysis; type: ADME, cell-free
[6] = Metabolic stability in Dunkin-Hartley guinea pig plasma assessed as half life at 5 uM measured upto 120 mins by LC-MS/MS analysis; type: ADME, cell-free, Cavia porcellus
[7] = (§1) In vivo antagonist activity at muscarinic M3 receptor in Dunkin-Hartley guinea pig trachea assessed as inhibition of acetylcholine-induced bronchoconstriction at 3 nmol/Kg, IT(Intratracheal) measured after 1 hr in presence of ICI-118551 by Konzett-Roessler methodology relative to control; type: functional; conditions: Cavia porcellus
[8] = In vivo agonist activity at beta-2 adrenoceptor in Dunkin-Hartley guinea pig trachea assessed as inhibition of histamine-induced bronchoconstriction at 3 nmol/Kg, IT(Intratracheal) measured after 1 hr by Konzett-Roessler methodology relative to control; type: functional; conditions: Cavia porcellus
Trachea [9] = experiment: as §1, with “Bifunctional” for “In vivo”, “receptor /agonist activity at beta-2 adrenoceptor” for “receptor”, “hr” for “hr in presence of ICI-118551”; type: functional; conditions: Cavia porcellus
[10] = (§2) In vivo antagonist activity at muscarinic M3 receptor in Dunkin-Hartley guinea pig trachea assessed as inhibition of acetylcholine-induced bronchoconstriction at 3 nmol/Kg, IT(Intratracheal) measured after 24 hr in presence of ICI-118551 by Konzett-Roessler methodology relative to control; type: functional; conditions: Cavia porcellus
[11] = In vivo agonist activity at beta-2 adrenoceptor in Dunkin-Hartley guinea pig trachea assessed as inhibition of histamine-induced bronchoconstriction at 3 nmol/Kg, IT(Intratracheal) measured after 24 hr by Konzett-Roessler methodology relative to control; type: functional; conditions: Cavia porcellus
Trachea [12] = experiment: as §2, with “Bifunctional” for “In vivo”, “receptor /agonist activity at beta-2 adrenoceptor” for “receptor”, “hr” for “hr in presence of ICI-118551”; type: functional; conditions: Cavia porcellus
Trachea [13] = experiment: In vivo bifunctional antagonist activity at muscarinic M3 receptor /agonist activity at beta-2 adrenoceptor in Dunkin-Hartley guinea pig trachea assessed as time duration for inhibition of carbachol induced contraction measured […]; type: functional, Cavia porcellus
Trachea [14] = experiment: In vivo bifunctional antagonist activity at muscarinic M3 receptor /agonist activity at beta-2 adrenoceptor in Dunkin-Hartley guinea pig trachea assessed as inhibition of carbachol induced contraction; type: functional, tissue-based; conditions: Cavia porcellus
[15] = (§3) In vivo antagonist activity at muscarinic M3 receptor in Dunkin-Hartley guinea pig trachea assessed as inhibition of acetylcholine induced bronchoconstriction at 1 nmol/Kg, IT(Intratracheal) measured after 1 hr in presence of ICI-118551 by Konzett-Roessler methodology relative to control; type: functional; conditions: Cavia porcellus
[16] = (§4) In vivo antagonist activity at muscarinic M3 receptor in Dunkin-Hartley guinea pig trachea assessed as inhibition of acetylcholine induced bronchoconstriction at 1 nmol/Kg, IT(Intratracheal) measured after 24 hr in presence of ICI-118551 by Konzett-Roessler methodology relative to control; type: functional; conditions: Cavia porcellus
[17] = In vivo agonist activity at beta-2 adrenoceptor in Dunkin-Hartley guinea pig trachea assessed as inhibition of histamine induced bronchoconstriction at 1 nmol/Kg, IT(Intratracheal) measured after 1 hr by Konzett-Roessler methodology relative to control; type: functional; conditions: Cavia porcellus
[18] = In vivo agonist activity at beta-2 adrenoceptor in Dunkin-Hartley guinea pig trachea assessed as inhibition of histamine induced bronchoconstriction at 1 nmol/Kg, IT(Intratracheal) measured after 24 hr by Konzett-Roessler methodology relative to control; type: functional; conditions: Cavia porcellus
Trachea [19] = experiment: as §3, with “Bifunctional” for “In vivo”, “receptor /agonist activity at beta-2 adrenoceptor” for “receptor”, “hr” for “hr in presence of ICI-118551”; type: functional; conditions: Cavia porcellus
Trachea [20] = experiment: as §4, with “Bifunctional” for “In vivo”, “receptor /agonist activity at beta-2 adrenoceptor” for “receptor”, “hr” for “hr in presence of ICI-118551”; type: functional; conditions: Cavia porcellus
[21] = Cmax in Dunkin-Hartley guinea pig lung at 500 nmol/Kg, IT(Intratracheal) measured after 72 hrs by LC/MS-MS analysis; type: ADME, tissue-based, Cavia porcellus; set-up: time 72 hrs, dose 500 nmol/kg, route it(Intratracheal); conditions: inhaled or intranasal
[22] = Tmax in Dunkin-Hartley guinea pig lung at 500 nmol/Kg, IT(Intratracheal) measured after 72 hrs by LC/MS-MS analysis; type: ADME, tissue-based, Cavia porcellus; conditions: inhaled or intranasal
[23] = AUClast in Dunkin-Hartley guinea pig lung at 500 nmol/Kg, IT(Intratracheal) measured after 72 hrs by LC/MS-MS analysis; type: ADME, tissue-based, Cavia porcellus; conditions: in vivo, inhaled_or_intranasal
[24] = AUCinfinity in Dunkin-Hartley guinea pig lung at 500 nmol/Kg, IT(Intratracheal) measured after 72 hrs by LC/MS-MS analysis; type: ADME, tissue-based, Cavia porcellus; set-up: dose 500 nmol/kg, time 72 hrs, route it(Intratracheal); conditions: in vivo, inhaled_or_intranasal
[25] = Half life in Dunkin-Hartley guinea pig lung at 500 nmol/Kg, IT(Intratracheal) measured after 72 hrs by LC/MS-MS analysis; type: ADME, tissue-based, Cavia porcellus; conditions: inhaled or intranasal
[26] = Cmax in Dunkin-Hartley guinea pig plasma at 500 nmol/Kg, IT(Intratracheal) measured after 72 hrs by LC/MS-MS analysis; type: ADME, cell-free, Cavia porcellus; set-up: dose 500 nmol/kg, time 72 hrs, route it(Intratracheal); conditions: inhaled or intranasal
[27] = Tmax in Dunkin-Hartley guinea pig plasma at 500 nmol/Kg, IT(Intratracheal) measured after 72 hrs by LC/MS-MS analysis; type: ADME, cell-free, Cavia porcellus; conditions: inhaled or intranasal
[28] = AUClast in Dunkin-Hartley guinea pig plasma at 500 nmol/Kg, IT(Intratracheal) measured after 72 hrs by LC/MS-MS analysis; type: ADME, cell-free, Cavia porcellus; set-up: time 72 hrs, dose 500 nmol/kg, route it(Intratracheal); conditions: inhaled or intranasal
[29] = AUCinfinity in Dunkin-Hartley guinea pig plasma at 500 nmol/Kg, IT(Intratracheal) measured after 72 hrs by LC/MS-MS analysis; type: ADME, cell-free, Cavia porcellus; set-up: dose 500 nmol/kg, time 72 hrs, route it(Intratracheal); conditions: inhaled or intranasal
[30] = Half life in Dunkin-Hartley guinea pig plasma at 500 nmol/Kg, IT(Intratracheal) measured after 72 hrs by LC/MS-MS analysis; type: ADME, cell-free, Cavia porcellus; conditions: inhaled or intranasal
[31] = Mutagenicity in Salmonella typhimurium assessed as induction of reverse mutation by Ames test; type: toxicity; conditions: salmonella enterica subsp. enterica serovar typhimurium
[32] = Mutagenicity in Escherichia coli assessed as induction of reverse mutation by Ames test; type: toxicity
Trachea [33] = experiment: (§5) Bifunctional antagonist activity at muscarinic M3 receptor /agonist activity at beta-2 adrenoceptor in Dunkin-Hartley guinea pig trachea assessed as inhibition of acetylcholine-induced bronchoconstriction at 1 nmol/Kg, IT(Intratracheal) measured after 5 mins by Konzett-Roessler methodology relative to control; type: functional; conditions: Cavia porcellus
Trachea [34] = experiment: as §5, with “15” for “5”; type: functional; conditions: Cavia porcellus, 0.25 h
Trachea [35] = experiment: as §5, with “30” for “5”; type: functional; conditions: Cavia porcellus, 0.5 h
[36] = Metabolic stability in human hepatocytes assessed as clearance at 1 uM measured per 10^6 cells and incubated upto 90 mins by LC-MS/MS analysis; type: ADME, cell-based, Hepatocyte; conditions: read-out: CLH
[37] = Metabolic stability in Dunkin-Hartley guinea pig hepatocytes assessed as clearance at 1 uM measured per 10^6 cells and incubated upto 90 mins by LC-MS/MS analysis; type: ADME, cell-based, Cavia porcellus, Hepatocyte; conditions: read-out: CLH
[38] = Metabolic stability in rat hepatocytes assessed as clearance at 1 uM measured per 10^6 cells and incubated upto 90 mins by LC-MS/MS analysis; type: ADME, cell-based, Hepatocyte; conditions: read-out: CLH
[39] = Metabolic stability in human liver microsomes assessed as clearance at 1 uM measured per mg protein incubated upto 60 mins in presence of NADPH by LC-MS/MS analysis; type: ADME, Microsome; conditions: read-out: CLH
[40] = Metabolic stability in rat liver microsomes assessed as clearance at 1 uM measured per mg protein incubated upto 60 mins in presence of NADPH by LC-MS/MS analysis; type: ADME, Microsome; conditions: read-out: CLH
[41] = Protein binding in human plasma assessed as unbound fraction at 5 uM measured after 4 hrs by LC-MS/MS analysis; type: ADME, cell-free
[42] = Protein binding in Dunkin-Hartley guinea pig plasma assessed as unbound fraction at 5 uM measured after 4 hrs by LC-MS/MS analysis; type: ADME, cell-free, Cavia porcellus
[43] = Protein binding in rat plasma assessed as unbound fraction at 5 uM measured after 4 hrs by LC-MS/MS analysis; type: ADME, cell-free
[44] = Apparent permeability across apical to basolateral side in human Caco-2 cells at 10 uM and measured after 2 hrs by LC-MS/MS analysis; type: ADME, cell-based
[45] = Apparent permeability across basolateral to apical side in human Caco-2 cells at 10 uM and measured after 2 hrs by LC-MS/MS analysis; type: ADME, cell-based
[46] = Efflux ratio of apparent permeability from basolateral to apical side over apical to basolateral side in human Caco-2 cells at 10 uM and measured after 2 hrs by LC-MS/MS analysis; type: ADME, cell-based

O=C(N[C@@H](c1ccccc1)c1cccc(OCc2ccc(C(=O)OCCCCNC[C@H](O)c3ccc(O)c4[nH]c(=O)ccc34)o2)c1)O[C@H]1CN2CCC1CC2
half-life at 1 µM [1]: 2 h
half-life at 1 µM [2]: 0.533 h
half-life at 1 µM [3]: > 2 h
half-life at 5 µM [4]: < 5 min
half-life at 5 µM [5]: 0.117 h
half-life at 5 µM [6]: > 2 h
inhibition in vivo at 0.003 µmol/kg [7]: 73.7%
inhibition in vivo at 0.003 µmol/kg [8]: 84.5%
inhibition in vivo at 0.003 µmol/kg (Trachea [9]): 78.3%
inhibition in vivo at 0.003 µmol/kg [10]: 43.5%
inhibition in vivo at 0.003 µmol/kg [11]: 48.7%
inhibition in vivo at 0.003 µmol/kg (Trachea [12]): 60.6%
Time (Trachea [13]): >225 min
pIC50 (Trachea [14]): 9.70
inhibition in vivo at 0.001 µmol/kg [15]: 64.7%
inhibition in vivo at 0.001 µmol/kg [16]: 9.4%
inhibition in vivo at 0.001 µmol/kg [17]: 67.8%
inhibition in vivo at 0.001 µmol/kg [18]: 48.9%
inhibition in vivo at 0.001 µmol/kg (Trachea [19]): 72%
inhibition in vivo at 0.001 µmol/kg (Trachea [20]): 34.2%

O=C(NC(c1ccccc1)c1cccc(OCc2ccc(C(=O)OCCCCNC[C@H](O)c3ccc(O)c4[nH]c(=O)ccc34)cc2)c1)O[C@H]1CN2CCC1CC2 (mixture of isomers)
half-life at 5 µM [4]: < 5 min
half-life at 5 µM [5]: < 0.0833 h
Time (Trachea [13]): >270 min
pIC50 (Trachea [14]): 10.10

O=C(N[C@@H](c1ccccc1)c1cccc(OCc2cccc(C(=O)OCCCCNC[C@H](O)c3ccc(O)c4[nH]c(=O)ccc34)c2)c1)O[C@H]1CN2CCC1CC2
half-life at 1 µM [2]: 0.287 h
half-life at 5 µM [4]: < 5 min
half-life at 5 µM [5]: 1.72 h
Time (Trachea [13]): >225 min
pIC50 (Trachea [14]): 9.30

Cn1nc(C(=O)O)cc1COc1cccc([C@@H](NC(=O)O[C@H]2CN3CCC2CC3)c2ccccc2)c1
Cmax [21]: 1450 ng/g
Tmax [22]: 4.98 min
AUClast [23]: 6226 ng·h/g
AUC [24]: 6465 ng·h/g
half-life [25]: 5.26 h
Cmax [26]: 41.7 ng/g
Tmax [27]: 4.98 min
AUC(0-t) at 72 h [28]: 179 ng·h/mL
AUC(0-inf) [29]: 296 ng·h/mL
half-life [30]: 20.7 h
Activity [31]: Non-Toxic
Activity [32]: Non-Toxic
inhibition in vivo at 0.001 µmol/kg (Trachea [33]): 0.84%
inhibition in vivo at 0.001 µmol/kg (Trachea [34]): 1.92%
inhibition in vivo at 0.001 µmol/kg (Trachea [35]): 3.36%

O=C(N[C@@H](c1ccccc1)c1cccc(OCc2ccc(CCNC[C@H](O)c3ccc(O)c4[nH]c(=O)ccc34)cc2)c1)O[C@H]1CN2CCC1CC2 (racemic)
half-life at 1 µM [1]: 3.33 h
hepatocyte CLint at 1 µM [36]: 6 µL/min/1e6 cells
hepatocyte CLint at 1 µM [37]: 17 µL/min/1e6 cells
hepatocyte CLint at 1 µM [38]: 25 µL/min/1e6 cells
microsomal CLint at 1 µM [39]: 16 µL/min/mg
microsomal CLint at 1 µM [40]: 10 µL/min/mg
half-life at 1 µM [2]: 3.6 h
half-life at 1 µM [3]: 1.17 h
Fu [41]: 98%
Fu [42]: 99%
Fu [43]: 98%
Papp A→B at 2 h, 10 µM [44]: 2 ×10⁻⁶ cm/s
Papp B→A at 2 h, 10 µM [45]: 3.1 ×10⁻⁶ cm/s
efflux ratio at 2 h, 10 µM [46]: 1.5
inhibition in vivo at 0.003 µmol/kg [7]: 78%
inhibition in vivo at 0.003 µmol/kg [8]: 67%
inhibition in vivo at 0.003 µmol/kg (Trachea [9]): 91%
inhibition in vivo at 0.003 µmol/kg [10]: 54%
inhibition in vivo at 0.003 µmol/kg [11]: 35%
inhibition in vivo at 0.003 µmol/kg (Trachea [12]): 77%
